Measurements as given in patent US8389523B2, “Substituted quinoxaline and an agrochemical composition thereof” (Kumiai Chemical Industry Co., Ltd., priority 2007, dated 2013).

Tests used:
[1] = system: Monochoria vaginalis (Burm. f.) Presl var. plantaginea (Roxb.) Solms-Laub.; assay: Herbicidal effects in paddy field soil treatment (Test Example 1); format: in vivo; set-up: scale not given here; details: for herbicidal effect (index) on Monochoria vaginalis (Burm. f.) Presl var. plantaginea (Roxb.) Solms-Laub.: paddy field soil treatment (Test Example 1), criteria of Table 138
Summary of the method: (§1)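 Seeds sown in puddled paddy soil, waterlogged to 3 cm depth; next day a diluted wettable powder applied dropwise to the water surface at 1000 g active ingredient per hectare. Herbicidal effect scored 21 days after treatment in a greenhouse.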

[2] = system: Scirpus juncoides Roxb. var. ohwianus. T. Koyama; assay: as above; format: in vivo; set-up: scale not given here; details: for herbicidal effect (index) on Scirpus juncoides Roxb. var. ohwianus. T. Koyama: paddy field soil treatment (Test Example 1), criteria of Table 138
Summary of the method: as §1

[3] = system: Echinochloa oryzicola Vasing; assay: as above; format: in vivo; set-up: scale not given here; details: for herbicidal effect (index) on Echinochloa oryzicola Vasing: paddy field soil treatment (Test Example 1), criteria of Table 138
Summary of the method: as §1

[4] = system: Amaranthus viridis L.; assay: Herbicidal effects in upland field soil treatment (Test Example 2); format: in vivo; set-up: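 grade 0 to 5 of growth suppression where 5 is 90% or more and 0 below 10%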; details: 1000 g active ingredient per hectare, 21st day after treatment, criteria of Table 138
Summary of the method: (§2)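 Pre-emergence test: seeds sown in upland soil, then soil surface sprayed with diluted wettable powder at 1000 g active ingredient per hectare (1000 liters per hectare). Greenhouse growth; herbicidal effect scored on day 21 against set criteria.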

[5] = system: Abutilon theophrasti medicus; assay: as above; format: in vivo; set-up: scale not given here; details: 1000 g active ingredient per hectare, 21st day after treatment, criteria of Table 138
Summary of the method: as §2

[6] = system: Amaranthus viridis L.; assay: Herbicidal effects in upland field foliar treatment (Test Example 3); format: in vivo; set-up: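 grade 0 to 5 of growth suppression where 5 is 90% or more and 0 below 10%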; details: criteria of Table 138; for herbicidal effects on Amaranthus viridis L.: 1000 g of the active ingredient per hectare, 14th day after the treatment, wettable powder
Summary of the method: (§3)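 Plants grown two weeks from seed in upland soil in a greenhouse, then sprayed overall with water-diluted wettable powder at 1000 L/ha delivering 1000 g active ingredient/ha. Herbicidal effect scored by rating criteria 14 days after treatment.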

[7] = system: Echinochloa crus-galli (L.) P. Beauv. var. crus-galli; assay: as above; format: in vivo; set-up: scale not given here; details: criteria of Table 138; for herbicidal effects on Echinochloa crus-galli (L.) P. Beauv. var. crus-galli: 1000 g of the active ingredient per hectare, 14th day after the treatment, wettable powder
Summary of the method: as §3

[8] = system: Abutilon theophrasti medicus; assay: as above; format: in vivo; set-up: scale not given here; details: criteria of Table 138; for herbicidal effects on Abutilon theophrasti medicus: 1000 g of the active ingredient per hectare, 14th day after the treatment, wettable powder
Summary of the method: as §3

[9] = paddy field soil treatment, 1000 g of the active ingredient per hectare, wettable powder added dropwise on water surface, 21st day after treatment
[10] = 1000 g active ingredient per hectare, 14th day after treatment

melting point [°C] | SMILES | Herbicidal effects index, Monochoria vaginalis (Burm. f.) Presl var. plantaginea (Roxb.) Solms-Laub. [1, 9] | Herbicidal effects index, Scirpus juncoides Roxb. var. ohwianus. T. Koyama [2, 9] | Herbicidal effects index, Echinochloa oryzicola Vasing [3, 9] | herbicidal effect (index) on Amaranthus viridis L. [4] | herbicidal effect (index) on Abutilon theophrasti medicus [5] | herbicidal effect (index) on Amaranthus viridis L. [6, 10] | herbicidal effect (index) on Echinochloa crus-galli (L.) P. Beauv. var. crus-galli [7, 10] | herbicidal effect (index) on Abutilon theophrasti medicus [8, 10] | herbicidal effect (index) on Monochoria vaginalis (Burm. f.) Presl var. plantaginea (Roxb.) Solms-Laub. [1] | herbicidal effect (index) on Scirpus juncoides Roxb. var. ohwianus. T. Koyama [2] | herbicidal effect (index) on Echinochloa oryzicola Vasing [3] | herbicidal effects on Amaranthus viridis L. [6] | herbicidal effects on Echinochloa crus-galli (L.) P. Beauv. var. crus-galli [7] | herbicidal effects on Abutilon theophrasti medicus [8]
191 to 192 | Cn1c(=O)c(C(=O)C2=C(O)CCCC2=O)nc2ccccc21 [I-2, 3-(2-hydroxy-6-oxo-1-cyclohexenecarbonyl)-1-methylquinoxalin-2(1H)-one] | 5 | 5 | 4 | 5 | 5 | 5 | 4 | 5 |  |  |  |  |  | 
 | COc1cccc(-n2c(=O)c(C(=O)C3=C(O)CCCC3=O)nc3cccnc32)c1 [IV-57] |  |  |  | 5 | 5 |  |  |  | 5 | 5 | 4 | 5 | 4 | 5
 | COc1ccc(-n2c(=O)c(C(=O)C3=C(O)CCCC3=O)nc3cccnc32)cc1 [IV-62, 2-(2-hydroxy-6-oxo-1-cyclohexenecarbonyl)-4-(4-methoxyphenyl)-pyrido[2,3-b]pyrazin-3(4H)-one] |  |  |  | 5 | 5 |  |  |  | 5 | 5 | 5 | 5 | 5 | 5
 | O=C1CCCC(O)=C1C(=O)c1nc2cccnc2n(-c2ccccc2OC(F)F)c1=O [IV-85] |  |  |  | 5 | 5 |  |  |  | 5 | 5 | 5 | 5 | 5 | 5
 | O=C1CCCC(O)=C1C(=O)c1nc2cccnc2n(-c2cccc(OC(F)F)c2)c1=O [IV-90] |  |  |  | 5 | 5 |  |  |  | 5 | 5 | 5 | 5 | 5 | 5
 | O=C1CCCC(O)=C1C(=O)c1nc2cccnc2n(-c2ccc(OC(F)F)cc2)c1=O [IV-95] |  |  |  | 5 | 5 |  |  |  | 5 | 5 | 5 | 5 | 5 | 5
 | O=C1CCCC(O)=C1C(=O)c1nc2cccnc2n(-c2ccccc2OC(F)(F)F)c1=O [IV-100] |  |  |  | 5 | 5 |  |  |  | 5 | 5 | 5 | 5 | 5 | 5
 | Cc1ccc(-n2c(=O)c(C(=O)C3=C(O)CCCC3=O)nc3cccnc32)cc1F [IV-222, 4-(3-fluoro-4-methylphenyl)-2-(2-hydroxy-6-oxo-1-cyclohexenecarbonyl)-pyrido[2,3-b]pyrazin-3 (4H)-one] |  |  |  | 5 | 5 |  |  |  | 5 | 5 | 5 | 5 | 5 | 5
 | O=C1CCCC(O)=C1C(=O)c1cnccn1 [comparative compound A, reference compound] |  |  |  | 0 | 1 |  |  |  | 0 | 0 | 2 | 1 | 0 | 2
 | O=C1CCCC(O)=C1C(=O)c1ccc2ccccc2n1 [comparative compound B, reference compound] |  |  |  | 2 | 2 |  |  |  | 0 | 0 | 0 | 1 | 0 | 5
 | CC1(C)CC(=O)C(C(=O)c2cnc3ccccc3n2)=C(O)C1 [comparative compound C, reference compound] |  |  |  | 3 | 0 |  |  |  | 2 | 1 | 1 | 0 | 0 | 4
 | CC1(C)CCC(=O)C(C(=O)c2cnc3ccccc3n2)=C1O [comparative compound D, reference compound] |  |  |  | 3 | 0 |  |  |  | 4 | 2 | 1 | 1 | 0 | 4
